Entries after “also recorded” stand apart in the source; their conditions may differ.
What was measured:
[1] = test system: S. cerevisiae; experiment: YT MicroPlate carbon utilization test with fungicide treatment; format: cell-based; settings: sub-inhibitory concentration of fungicide; 48 hours incubation; YT MicroPlate (Biolog); FIG. 2
Method: The YT microplate test panel (Biolog, Inc.) is designed as a tool for identifying a broad range of yeasts by their carbon utilization patterns. Initial tests were performed with S. cerevisiae in these plates with and without the addition of various fungicides. Very simply, yeast cells are prepared as a water suspension as per the YT microplate instructions. Prior to loading the plates with cells, a fungicide or solvent control is added to the water suspension. The cells are immediately loaded onto a plate. The plates were incubated at 26° C. as per instructions, and OD490 and OD750 readings were obtained at various time points during incubation. The results of fungicide treated samples and controls are compared. Differences in well growth that is altered relative to the control is recorded and is presumed to relate to the mode-of-action of the chemical.
A test in the YT microplate was set up using the sub-inhibitory concentration of three fungicides for which a putative MOA is known. Two fungicides, benomyl and fenpropimorph are predicted to have no effect on carbon utilization, but the third, fenpiclonil, is predicted to affect glucose uptake and utilization. The experiments were performed as described.

[2] = test system: M. grisea and S. cerevisiae; format: cell-based; settings: OD600; rich liquid media; two fold dilution series; species not given

Compound | utilization of carbon sources, fungicide treatment compared to controls [1] | growth inhibition by spectrophotometric analysis [2]
N#Cc1c[nH]cc1-c1cccc(Cl)c1Cl [fenpiclonil] | decreased utilization of glucose, raffinose and sucrose; also recorded: significant changes in the utilization of glucose, raffinose, and sucrose | 
O=C1CCc2cccc3c2N1CC3 [pyroquilon] |  | no growth inhibition
CCCCNC(=O)n1c(NC(=O)OC)nc2ccccc21 [benomyl] | did not result in any significant differences from the controls | 
Cc1cccc2sc3nncn3c12 [tricyclazole] |  | no growth inhibition
CC(Cc1ccc(C(C)(C)C)cc1)CN1C[C@@H](C)O[C@@H](C)C1 (some centres unmarked) [fenpropimorph] | did not result in any significant differences from the controls | 
